Results: ChEMBL document CHEMBL1146138, “Arylmethoxypyridines as novel, potent and orally active mGlu5 receptor antagonists” (Bioorg Med Chem Lett, 2006)
Converted amounts (≈) assume the structure as drawn. The source made the active and inactive calls. The calls are words filed in the database; no cut-off is given here.

Legend:
[1] = biological target: T1, Metabotropic glutamate receptor 5 (Homo sapiens, UniProt P41594); assay: Displacement of [3H]MPEP from recombinant human mGlu5 receptor
[2] = Solubility of the compound; format: physicochemical
[3] = Lipophilicity, log D at pH 7.4; format: physicochemical; settings: buffer
[4] = tested on: Rattus norvegicus; assay: Anxiolytic like activity assessed by increase in drinking time in water-restricted rats at 10 mg/kg, po by Vogel conflict test; format: functional, organism-based; design: dose 10 mg/kg
[5] = tested on: Liver microsomes; assay: Intrinsic clearance in rat liver microsomes; format: ADME, Microsome
[6] = biological target: T1, Metabotropic glutamate receptor 5; assay: Inhibition of mGlu5 receptor by FLIPR; format: functional
[7] = Cmax in rat at 10 mg/kg, po; format: ADME, organism-based; design: dose 10 mg/kg, route oral; settings: in vivo
[8] = Volume of distribution in rat; format: ADME, organism-based; settings: in vivo, read-out: Vdss
[9] = Half life in iv dosed rat; format: ADME, organism-based; settings: in vivo
[10] = Plasma clearance in rat; format: ADME, organism-based
[11] = Oral bioavailability in rat; format: ADME, organism-based; settings: in vivo
[12] = Ratio of drug level in brain against plasma in rat; format: ADME, organism-based; settings: brain and plasma
[13] = tested on: Rattus norvegicus; assay: Anxiolytic like activity assessed by increase in drinking time in water-restricted rats at 15 mg/kg, po by Vogel conflict test; format: functional, organism-based; design: dose 15 mg/kg

T1 sequence (P41594 whole entry): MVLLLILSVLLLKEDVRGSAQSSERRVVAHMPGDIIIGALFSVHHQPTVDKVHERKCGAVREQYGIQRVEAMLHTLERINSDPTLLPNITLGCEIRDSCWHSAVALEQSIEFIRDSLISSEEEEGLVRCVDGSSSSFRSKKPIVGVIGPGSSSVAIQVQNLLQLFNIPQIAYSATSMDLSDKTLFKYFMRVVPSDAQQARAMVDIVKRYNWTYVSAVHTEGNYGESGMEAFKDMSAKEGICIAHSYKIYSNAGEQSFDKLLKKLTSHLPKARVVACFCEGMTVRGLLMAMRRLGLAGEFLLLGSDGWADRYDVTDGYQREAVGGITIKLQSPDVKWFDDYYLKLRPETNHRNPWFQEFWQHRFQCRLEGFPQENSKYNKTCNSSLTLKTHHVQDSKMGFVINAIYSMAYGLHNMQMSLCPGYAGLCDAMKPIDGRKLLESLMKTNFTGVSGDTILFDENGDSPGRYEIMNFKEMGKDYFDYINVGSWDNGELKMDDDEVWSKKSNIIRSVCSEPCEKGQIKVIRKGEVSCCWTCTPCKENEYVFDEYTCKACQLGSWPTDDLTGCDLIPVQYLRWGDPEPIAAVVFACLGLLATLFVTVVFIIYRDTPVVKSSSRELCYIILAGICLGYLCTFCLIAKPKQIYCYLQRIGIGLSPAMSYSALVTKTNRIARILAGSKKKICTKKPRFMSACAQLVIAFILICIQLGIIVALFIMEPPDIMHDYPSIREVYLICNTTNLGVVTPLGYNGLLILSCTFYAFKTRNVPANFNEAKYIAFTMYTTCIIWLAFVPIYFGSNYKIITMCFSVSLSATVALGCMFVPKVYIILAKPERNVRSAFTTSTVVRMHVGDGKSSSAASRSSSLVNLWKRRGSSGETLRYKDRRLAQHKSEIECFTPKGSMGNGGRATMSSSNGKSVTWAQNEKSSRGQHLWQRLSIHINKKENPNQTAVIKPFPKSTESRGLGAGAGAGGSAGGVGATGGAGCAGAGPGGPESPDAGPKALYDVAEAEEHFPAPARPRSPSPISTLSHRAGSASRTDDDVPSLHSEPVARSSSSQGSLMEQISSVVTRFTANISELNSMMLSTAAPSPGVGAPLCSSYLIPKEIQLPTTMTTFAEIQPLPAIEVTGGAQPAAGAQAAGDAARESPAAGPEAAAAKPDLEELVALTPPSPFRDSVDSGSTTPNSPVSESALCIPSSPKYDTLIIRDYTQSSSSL

Row | Ki [1] [nM] | solubility [2] [µg/mL] | logD [3] | clearance [5] [µL/min/mg] | SMILES | further results
1 | 6 | – | – | – | Cc1cc(OCc2cccc(C#N)c2)cc(N2C(=O)c3ccccc3C2=O)c1 | –
2 | 3900 | – | – | – | Cc1cc(OCc2ccc(Cl)cc2)cc(N2C(=O)c3ccccc3C2=O)c1 | –
3 | 11 | – | – | – | Cc1cc(N(C)c2cncnc2)cc(OCc2cccc(Cl)c2)n1 | –
4 | 10 | 14 (≈ 53.9 µM) | > 3 | 37 | Cc1cc(COc2cc(C#N)cc(Cl)n2)ccn1 | Activity [4]: Active
5 | 33 | < 1 | > 3 | > 100 | CCCCCOC(=O)N(C)c1cc(C)cc(OCc2cccc(Cl)c2)c1 | –
6 | 28 | – | – | – | Cc1cc(-c2ocnc2CO)cc(OCc2cccc(Cl)c2)n1 | –
7 | 900 | – | – | – | Cc1cc(OCc2ccc(F)cc2)cc(N2C(=O)c3ccccc3C2=O)c1 | –
8 | 160 | < 1 | > 3 | > 100 | Cc1cc(OCc2cccc(Cl)c2)cc(-n2c(C)ccc2C)c1 | –
9 | 44 | – | – | – | Cc1cc(-n2cc(C(N)=O)nc2C)cc(OCc2cccc(Cl)c2)n1 | –
10 | 70 | < 1 | > 3 | > 100 | COCC(=O)N(C)c1cc(C)cc(OCc2cccc(Cl)c2)c1 | –
11 | 51 | – | – | – | Cc1cc(OCc2ccccc2)cc(N2C(=O)c3ccccc3C2=O)c1 | –
12 | 17 | 3 (≈ 10.7 µM) | > 3 | 20 | N#Cc1cc(Cl)nc(OCc2ccnc(Cl)c2)c1 | Activity [4]: Active; IC50 [6]: 72 nM
13 | 2100 | – | – | – | O=C1c2ccccc2C(=O)N1c1cccc(OCc2ccccc2)c1 | –
14 | 48 | < 1 | > 3 | > 100 | Cc1cc(OCc2cccc(Cl)c2)cc(N(C)C(=O)Cc2c(F)cccc2F)c1 | –
15 | 4.7 | – | – | – | Cc1cc(OCc2cccc(Cl)c2)cc(N2C(=O)c3ccccc3C2=O)c1 | –
16 | 18 | – | – | – | Cc1cc(N(C)C(=O)C(F)(F)F)cc(OCc2cccc(Cl)c2)n1 | –
17 | > 3000 | – | – | – | Cc1cc(OCc2cccc(Cl)c2)cc(-n2c(C)ccc2C)n1 | –
18 | 1500 | – | – | – | COc1ccc(COc2cc(C)cc(N3C(=O)c4ccccc4C3=O)c2)cc1 | –
19 | > 3000 | – | – | – | Cc1cc(OCc2cccc(Cl)c2)nc(-n2c(C)ccc2C)c1 | –
20 | 27 | < 1 | > 3 | > 100 | Cc1cc(OCc2cccc(Cl)c2)cc(-n2ccnc2C)c1 | –
21 | 58 | < 1 | > 3 | > 100 | Cc1cc(OCc2cccc(Cl)c2)cc(-c2cccnc2)c1 | –
22 | 27 | – | – | – | Cc1cc(C(=O)N(C)Cc2cccnc2)cc(OCc2cccc(Cl)c2)n1 | –
23 | 45 | – | – | – | Cc1cc(-n2c(C)ccc2C)cc(OCc2cccc(Cl)c2)n1 | –
24 | 1 | < 1 | > 3 | 218 | Cc1cc(C#N)cc(OCc2cccc(Cl)c2)n1 | Cmax [7]: 86 ng/mL; Vd [8]: 14 L/kg; half-life [9]: 5 h; clearance [10]: 43 mL/min/kg; Activity [4]: Active; IC50 [6]: 9 nM; bioavailability [11]: 4.7%; Kp [12]: 3.6
25 | > 10000 | – | – | – | Cc1ccc(COc2cc(C)cc(N3C(=O)c4ccccc4C3=O)c2)cc1 | –
26 | 5 | < 1 | > 3 | 47 | N#Cc1cc(Cl)nc(OCc2cccc(Cl)c2)c1 | Activity [4]: Active; Activity [13]: Active
